{"source": "patent US6586417B1", "about": "“Ester and ether derivatives of 4-hydroxy 4-androstene-3,17-dione and a method for the regulation of athletic function in humans” (NutriSport Pharmacal, Inc., priority 2002, dated 2003)", "origin": "cited, not measured here", "key": {"[1]": {"tested_on": "rats", "settings": "for weight of the genital organs (testis, ventral prostrate, seminal vesicle) / luteinizing hormone (LH) levels: rats, subcutaneous treatment; for luteinizing hormone (LH) levels: 4-acetoxy-4-androstenedione given against effects of 19-hydroxytestosterone"}, "[2]": {"tested_on": "rat follicles", "settings": "rat follicles in vitro"}, "[3]": {"tested_on": "transformation of testosterone to dihydrotestosterone in the ventral prostrate", "settings": "ventral prostrate of the adult male rat"}, "[4]": {"tested_on": "estrogen"}, "[5]": {"target": "T1, aromatase enzyme (Homo sapiens, UniProt P11511)", "T1 construct": "host or cells: endogenous enzyme in treated males (in vivo)", "T1 sequence (P11511 1-503)": "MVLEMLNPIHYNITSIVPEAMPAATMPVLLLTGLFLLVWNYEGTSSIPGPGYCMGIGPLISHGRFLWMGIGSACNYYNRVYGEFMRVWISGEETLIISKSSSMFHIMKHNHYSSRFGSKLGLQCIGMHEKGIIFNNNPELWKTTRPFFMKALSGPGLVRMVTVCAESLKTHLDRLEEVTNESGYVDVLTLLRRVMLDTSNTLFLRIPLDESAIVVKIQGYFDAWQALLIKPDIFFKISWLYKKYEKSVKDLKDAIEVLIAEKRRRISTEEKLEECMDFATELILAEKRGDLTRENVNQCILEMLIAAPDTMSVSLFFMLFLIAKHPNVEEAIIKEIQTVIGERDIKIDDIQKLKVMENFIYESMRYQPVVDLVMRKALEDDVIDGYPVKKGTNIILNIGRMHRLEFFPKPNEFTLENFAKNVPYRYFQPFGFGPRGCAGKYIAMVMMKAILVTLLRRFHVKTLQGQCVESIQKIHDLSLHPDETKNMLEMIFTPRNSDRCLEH", "settings": "at 24 and 48 weeks"}}, "data": [{"smiles": "CC(=O)OC1=C2CC[C@@H]3[C@H](CC[C@]4(C)C(=O)CC[C@@H]34)[C@@]2(C)CCC1=O", "note": "[4-acetoxy-4-androstenedione]", "values": [{"measurement": "meiotic activity", "setting": "[1]; rats treated with 19-hydroxytestosterone", "value": "restored meiotic activity"}, {"measurement": "weight of the genital organs (testis, ventral prostrate, seminal vesicle)", "setting": "[1]", "value": "increased the weight of the genital organs"}, {"measurement": "luteinizing hormone (LH) levels", "setting": "[1]", "value": "increased luteinizing hormone (LH) levels"}, {"measurement": "stimulation of testosterone, in combination with luteinizing hormone (LH)", "setting": "[2]; first eight hours, plus LH", "value": "greatly stimulate testosterone"}, {"measurement": "stimulation of testosterone, compound alone", "setting": "[2]; first eight hours, without LH", "value": "directly stimulate testosterone alone"}, {"measurement": "stimulation of testosterone relative to luteinizing hormone (LH)", "setting": "[2]; next sixteen hours, compound alone", "value": "three times as much as luteinizing hormone (LH)"}, {"measurement": "inhibition of the transformation of testosterone to dihydrotestosterone", "setting": "[3]", "value": "able to inhibit"}]}, {"smiles": "C[C@]12CCC(=O)C(O)=C1CC[C@@H]1[C@@H]2CC[C@]2(C)C(=O)CC[C@@H]12", "note": "[4-hydroxy 4-androstenedione, 4-hydroxy 4-androstene-3, 17-dione]", "values": [{"measurement": "inhibition of the transformation of testosterone to dihydrotestosterone", "setting": "[3]", "value": "able to inhibit"}, {"measurement": "escape from estrogen suppression", "setting": "[4]; 500 mg p.o. daily versus single i.m. injection of 125 mg", "value": "more rapid"}, {"measurement": "oral absorption", "setting": "[4]; p.o.", "value": "adequate oral absorption"}]}, {"smiles": "C[C@]12CC[C@H]3[C@@H](CCC4=CC(=O)CC[C@@]43CO)[C@@H]1CC[C@@H]2O", "note": "[19-hydroxytestosterone, reference compound]", "values": [{"measurement": "weight of the genital organs (testis, ventral prostrate, seminal vesicle)", "setting": "[1]", "value": "decrease in weight of the testis, ventral prostrate, seminal vesicle"}, {"measurement": "luteinizing hormone (LH) levels", "setting": "[1]", "value": "decrease"}]}, {"smiles": "CC1=CC(=O)C=C2CC[C@@H]3[C@H](CC[C@]4(C)C(=O)CC[C@@H]34)[C@@]12C", "note": "[atamestane]", "values": [{"measurement": "restoration of androgens over estrogens", "setting": "[5]", "value": "restoration of androgens over estrogens"}]}]}
